For the assay, the target named is AM2(V27A) (Influenza A virus, UniProt P0DOF5, V27A). It is filed as biochemical.

Regarding `NC1CCC2(CCCCC2)CC1` [Compound 8, Spiro[5.5]undec-3-ylamine], the “% Activity” value is reported as 8 (47.34%) 9 (68.39%).

Turning to `CNC1CCC2(CCCCC2)CC1` [Compound 9, Methyl-spiro[5.5]undec-3-yl-amine], the “% Activity” value is 8 (47.34%) 9 (68.39%).

Take `Cl.NC12CC3CC(CC(C3)C1)C2` [amantadine, reference compound]: the “% Activity” value came out at 99.1%.

These data come from patent US9453005B2, “Inhibition of influenza M2 proton channel” (The Trustees Of The University Of Pennsylvania, priority 2008, dated 2016).
